Data taken from patent publication US20080009418A1, “Selective Inhibitors” (Alchemia LTD., priority 2004, published 2008).

Key:
Human neurokinin (NK1) = target: T1, Human neurokinin (NK1) (Homo sapiens, UniProt P25103); assay: Radioligand binding, human neurokinin NK1 membranes, filtration, [125I]-Substance P; conditions: compound at 10 μM, [125I]-Substance P; for A8: inhibition of radioligand binding: filtration
T1 construct: purchased Perkin Elmer Biosignal
Procedure, shortened: (§1)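 Percent inhibition of radioligand binding measured on recombinant human membranes: NK1 with [125I]-Substance P, KOP with [3H]-Diprenorphine. Incubation 1 h at room temperature, then harvest onto 0.3% PEI-soaked filters, cold Tris-HCl pH 7.4 washes and scintillation counting; non-specific binding from reference ligand wells.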

Human κ-Opioid (KOP) = target: T2, Human κ-Opioid (KOP) (Homo sapiens, UniProt P41145); assay: Radioligand binding, human κ-opioid (KOP) membranes, filtration, [3H]-Diprenorphine; conditions: compound at 10 μM, [3H]-Diprenorphine; for A2: inhibition of radioligand binding: filtration
T2 construct: purchased Perkin Elmer Biosignal
T2 sequence (P41145 whole entry): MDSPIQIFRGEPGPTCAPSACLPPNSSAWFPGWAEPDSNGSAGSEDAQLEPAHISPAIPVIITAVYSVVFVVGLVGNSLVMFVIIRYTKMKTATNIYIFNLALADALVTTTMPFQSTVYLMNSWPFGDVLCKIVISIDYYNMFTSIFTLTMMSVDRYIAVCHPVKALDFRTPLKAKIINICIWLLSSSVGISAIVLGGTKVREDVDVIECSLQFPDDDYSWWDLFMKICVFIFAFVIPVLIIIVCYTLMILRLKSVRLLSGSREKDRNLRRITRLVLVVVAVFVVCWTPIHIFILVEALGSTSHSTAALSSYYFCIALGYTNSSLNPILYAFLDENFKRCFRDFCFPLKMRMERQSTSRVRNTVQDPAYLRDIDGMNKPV
Procedure, shortened: as §1

[1] = target: T3, Human neuropeptide Y (NPY-Y1) (Homo sapiens, UniProt P25929); assay: Radioligand binding, human neuropeptide Y NPY-Y1 membranes, FlashPlate, [125I]-PYY; conditions: compound at 10 μM, [125I]-PYY; for A9: inhibition of radioligand binding: FlashPlate
T3 construct: purchased Perkin Elmer Biosignal
T3 sequence (P25929 1-384): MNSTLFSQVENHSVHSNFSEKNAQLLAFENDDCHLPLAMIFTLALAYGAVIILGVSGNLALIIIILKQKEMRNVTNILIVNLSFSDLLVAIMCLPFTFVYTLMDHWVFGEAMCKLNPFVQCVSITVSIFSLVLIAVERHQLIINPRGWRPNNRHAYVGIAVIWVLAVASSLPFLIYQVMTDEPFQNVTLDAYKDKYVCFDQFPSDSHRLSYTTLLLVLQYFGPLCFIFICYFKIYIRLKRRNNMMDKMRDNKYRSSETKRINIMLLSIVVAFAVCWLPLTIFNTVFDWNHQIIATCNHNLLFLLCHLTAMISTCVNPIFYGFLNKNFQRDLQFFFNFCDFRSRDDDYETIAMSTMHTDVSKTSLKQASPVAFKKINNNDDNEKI
Procedure, shortened: (§2)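 Cloned human receptor membranes were coated onto FlashPlate wells and incubated with radioligand and compound (added from a 0.5 mM DMSO daughter plate) for 1 hour at room temperature in the dark. Scintillation counting gave percent inhibition, with DMSO defining total and reference ligand defining non-specific binding.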

Human melanocortin (MC5) = target: T4, Human melanocortin (MC5) (Homo sapiens, UniProt P33032); assay: Radioligand binding, human melanocortin MC5 membranes, FlashPlate, [125I]-NDP-αMSH; conditions: compound at 10 μM, [125I]-NDP-αMSH; for A5: inhibition of radioligand binding: FlashPlate
T4 construct: purchased Perkin Elmer Biosignal
T4 sequence (P33032 whole entry): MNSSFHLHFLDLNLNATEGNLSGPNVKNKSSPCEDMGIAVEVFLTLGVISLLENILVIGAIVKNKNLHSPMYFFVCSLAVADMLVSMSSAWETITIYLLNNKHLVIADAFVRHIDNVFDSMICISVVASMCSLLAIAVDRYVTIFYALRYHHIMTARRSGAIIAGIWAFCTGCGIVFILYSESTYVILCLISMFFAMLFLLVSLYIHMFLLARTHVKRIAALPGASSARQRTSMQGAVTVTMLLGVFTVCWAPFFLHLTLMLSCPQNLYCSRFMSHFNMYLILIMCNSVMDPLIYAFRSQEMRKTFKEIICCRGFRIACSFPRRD
Procedure, shortened: as §2

Mouse urotensin (mUR2) = target: T5, Mouse urotensin (mUR2) (Mus musculus, UniProt Q8VIH9); assay: Radioligand binding, mouse urotensin mUR2 membranes, FlashPlate, [125I]-Urotensin II; conditions: compound at 10 μM, [125I]-Urotensin II; for A11: inhibition of radioligand binding: FlashPlate
T5 construct: purchased Perkin Elmer Biosignal
T5 sequence (Q8VIH9 1-385): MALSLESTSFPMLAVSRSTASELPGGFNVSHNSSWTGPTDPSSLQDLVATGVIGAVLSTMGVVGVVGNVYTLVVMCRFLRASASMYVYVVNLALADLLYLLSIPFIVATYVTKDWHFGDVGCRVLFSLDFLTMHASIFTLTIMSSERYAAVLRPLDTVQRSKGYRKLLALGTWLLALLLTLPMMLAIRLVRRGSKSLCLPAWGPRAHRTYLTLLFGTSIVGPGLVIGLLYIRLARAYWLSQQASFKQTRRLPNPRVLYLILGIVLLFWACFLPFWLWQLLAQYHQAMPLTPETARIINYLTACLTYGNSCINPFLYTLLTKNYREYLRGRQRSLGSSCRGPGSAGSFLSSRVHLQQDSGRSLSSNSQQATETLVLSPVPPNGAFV
Procedure, shortened: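 Cloned mouse urotensin (mUR2) receptor membranes from Perkin Elmer Biosignal were immobilized in FlashPlate microplates using a proprietary coating. Each well got 19.5 μl buffer, then 0.5 μl of DMSO, reference ligand, or compound. Adding 5 μl of [125I]-Urotensin II, diluted to 5× final concentration in binding buffer, started binding. Plates were sealed with TopSeal-A and incubated 1 hour at room temperature in the dark. Wells were counted for 30 seconds each on a TopCount after a 60-second delay, and percentage inhibition was calculated.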

Human μ-opioid (MOP) = target: T6, Human μ-opioid (MOP) (Homo sapiens, UniProt P35372); assay: Radioligand binding, human μ-opioid (MOP) membranes, FlashPlate, [3H]-Naloxone; conditions: compound at 10 μM, [3H]-Naloxone; for A7: inhibition of radioligand binding: FlashPlate
T6 construct: purchased Perkin Elmer Biosignal
T6 sequence (P35372 whole entry): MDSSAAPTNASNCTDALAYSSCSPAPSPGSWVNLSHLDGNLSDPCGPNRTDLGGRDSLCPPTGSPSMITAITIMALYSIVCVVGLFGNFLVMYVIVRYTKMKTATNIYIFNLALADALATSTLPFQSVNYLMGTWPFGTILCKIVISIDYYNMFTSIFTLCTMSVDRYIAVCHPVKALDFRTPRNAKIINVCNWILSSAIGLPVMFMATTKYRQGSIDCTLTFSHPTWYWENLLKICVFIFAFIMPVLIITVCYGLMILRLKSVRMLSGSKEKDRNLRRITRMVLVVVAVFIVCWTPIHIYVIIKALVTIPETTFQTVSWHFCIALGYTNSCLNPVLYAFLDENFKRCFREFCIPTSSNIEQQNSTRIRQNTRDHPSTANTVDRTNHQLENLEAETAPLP
Procedure, shortened: as §2

[2] = target: T7, Human melanin-concentrating hormone (MCH1) (Homo sapiens, UniProt Q99705); assay: Radioligand binding, human melanin-concentrating hormone MCH1 membranes, FlashPlate, [125I]-S36057; conditions: compound at 10 μM; for A6: inhibition of radioligand binding: [125I]-S36057, FlashPlate
T7 construct: purchased Perkin Elmer Biosignal
T7 sequence (Q99705 whole entry): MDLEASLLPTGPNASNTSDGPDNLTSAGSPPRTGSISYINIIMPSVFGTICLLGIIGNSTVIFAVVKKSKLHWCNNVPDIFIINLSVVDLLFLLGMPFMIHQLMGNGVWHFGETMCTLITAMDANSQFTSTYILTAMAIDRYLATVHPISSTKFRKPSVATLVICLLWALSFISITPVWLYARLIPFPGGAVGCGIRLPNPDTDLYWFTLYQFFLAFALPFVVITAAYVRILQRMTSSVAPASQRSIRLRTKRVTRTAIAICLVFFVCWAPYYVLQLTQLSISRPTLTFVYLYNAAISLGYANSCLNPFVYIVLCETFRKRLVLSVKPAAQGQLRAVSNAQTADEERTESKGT
Procedure, shortened: as §2

Human Melanocortin (MC4) = target: T8, Human Melanocortin (MC4) (Homo sapiens, UniProt P32245); assay: Radioligand binding, human melanocortin MC4 membranes, FlashPlate, [125I]-NDP-αMSH; conditions: compound at 10 μM, [125I]-NDP-αMSH; for A4: inhibition of radioligand binding: FlashPlate
T8 construct: purchased Perkin Elmer Biosignal
T8 sequence (P32245 whole entry): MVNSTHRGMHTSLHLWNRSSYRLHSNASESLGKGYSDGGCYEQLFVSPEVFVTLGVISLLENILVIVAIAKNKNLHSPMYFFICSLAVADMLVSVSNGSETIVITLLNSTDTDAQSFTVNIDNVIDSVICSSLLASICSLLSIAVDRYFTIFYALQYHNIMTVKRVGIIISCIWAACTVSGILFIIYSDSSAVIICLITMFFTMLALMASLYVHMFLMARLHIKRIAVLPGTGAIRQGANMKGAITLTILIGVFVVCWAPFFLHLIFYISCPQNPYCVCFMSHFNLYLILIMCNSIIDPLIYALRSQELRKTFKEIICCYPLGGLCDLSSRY
Procedure, shortened: as §2

Human Melanocortin (MC3) = target: T9, Human Melanocortin (MC3) (Homo sapiens, UniProt P41968); assay: Radioligand binding, human melanocortin MC3 membranes, FlashPlate, [125I]-NDP-αMSH; conditions: compound at 10 μM, [125I]-NDP-αMSH; for A3: inhibition of radioligand binding: FlashPlate
T9 construct: purchased Perkin Elmer Biosignal
T9 sequence (P41968 whole entry): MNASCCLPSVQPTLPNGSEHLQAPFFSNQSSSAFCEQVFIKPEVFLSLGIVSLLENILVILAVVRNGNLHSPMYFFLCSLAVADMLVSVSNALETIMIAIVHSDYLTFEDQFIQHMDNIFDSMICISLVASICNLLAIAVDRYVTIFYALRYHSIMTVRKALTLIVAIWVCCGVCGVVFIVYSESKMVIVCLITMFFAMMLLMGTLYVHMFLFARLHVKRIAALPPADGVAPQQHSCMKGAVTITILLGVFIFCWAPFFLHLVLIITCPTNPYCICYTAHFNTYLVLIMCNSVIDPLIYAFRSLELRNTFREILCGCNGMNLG
Procedure, shortened: as §2

Human opioid (ORL1) = target: T10, Human opioid (ORL1) (Homo sapiens, UniProt P41146); assay: Radioligand binding, human opioid ORL1 membranes, FlashPlate, [125I]-Nociceptin; conditions: compound at 10 μM, [125I]-Nociceptin; for A10: inhibition of radioligand binding: FlashPlate
T10 construct: purchased Perkin Elmer Biosignal
T10 sequence (P41146 whole entry): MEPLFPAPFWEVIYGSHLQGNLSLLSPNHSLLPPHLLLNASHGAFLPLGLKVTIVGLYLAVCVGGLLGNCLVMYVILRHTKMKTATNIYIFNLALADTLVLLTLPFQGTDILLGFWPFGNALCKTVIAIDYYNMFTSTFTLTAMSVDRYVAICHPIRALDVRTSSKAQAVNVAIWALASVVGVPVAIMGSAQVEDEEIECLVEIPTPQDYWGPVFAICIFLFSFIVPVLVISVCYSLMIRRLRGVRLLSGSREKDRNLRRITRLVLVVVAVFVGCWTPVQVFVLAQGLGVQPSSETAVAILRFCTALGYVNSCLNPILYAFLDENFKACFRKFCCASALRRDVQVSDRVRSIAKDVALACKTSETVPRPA
Procedure, shortened: as §2

Human δ-opioid (DOP) = target: T11, Human δ-opioid (DOP) (Homo sapiens, UniProt P41143); assay: Radioligand binding, human δ-opioid (DOP) membranes, FlashPlate, [3H]-Bremazocine; conditions: compound at 10 μM, [3H]-Bremazocine; for A1: inhibition of radioligand binding: FlashPlate
T11 construct: purchased Perkin Elmer Biosignal
T11 sequence (P41143 whole entry): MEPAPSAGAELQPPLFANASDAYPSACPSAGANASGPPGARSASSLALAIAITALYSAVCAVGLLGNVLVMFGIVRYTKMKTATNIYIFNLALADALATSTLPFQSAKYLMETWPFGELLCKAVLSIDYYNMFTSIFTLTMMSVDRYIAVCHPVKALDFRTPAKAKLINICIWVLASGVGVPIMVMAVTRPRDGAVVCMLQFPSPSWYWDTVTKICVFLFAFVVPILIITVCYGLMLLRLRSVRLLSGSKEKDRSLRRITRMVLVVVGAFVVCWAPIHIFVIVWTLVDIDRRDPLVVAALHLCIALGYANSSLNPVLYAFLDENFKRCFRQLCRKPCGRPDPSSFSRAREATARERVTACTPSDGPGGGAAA
Procedure, shortened: as §2

T1 sequence (P25103 whole entry): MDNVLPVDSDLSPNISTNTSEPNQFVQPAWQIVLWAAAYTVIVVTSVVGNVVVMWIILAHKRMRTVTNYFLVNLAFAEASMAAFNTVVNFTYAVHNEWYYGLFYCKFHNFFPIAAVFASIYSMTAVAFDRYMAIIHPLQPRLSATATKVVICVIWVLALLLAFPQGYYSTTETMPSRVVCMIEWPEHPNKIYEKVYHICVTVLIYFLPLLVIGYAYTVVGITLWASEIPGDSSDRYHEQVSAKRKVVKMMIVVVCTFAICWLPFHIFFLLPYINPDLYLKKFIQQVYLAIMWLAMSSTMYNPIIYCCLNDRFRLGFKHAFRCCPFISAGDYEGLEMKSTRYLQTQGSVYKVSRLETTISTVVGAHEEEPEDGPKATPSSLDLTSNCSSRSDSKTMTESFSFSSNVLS

Row | Compound | A8: inhibition of radioligand binding (Human neurokinin (NK1)) | A2: inhibition of radioligand binding (Human κ-Opioid (KOP)) | A9: inhibition of radioligand binding [1] | A5: inhibition of radioligand binding (Human melanocortin (MC5)) | A11: inhibition of radioligand binding (Mouse urotensin (mUR2)) | A7: inhibition of radioligand binding (Human μ-opioid (MOP)) | A6: inhibition of radioligand binding [2] | A4: inhibition of radioligand binding (Human Melanocortin (MC4)) | A3: inhibition of radioligand binding (Human Melanocortin (MC3)) | A10: inhibition of radioligand binding (Human opioid (ORL1)) | A1: inhibition of radioligand binding (Human δ-opioid (DOP)) | other results
1 | CSC1OC(COCc2ccc(Cl)cc2)C(O)C(OCc2ccc(Cl)cc2)C1NC(=O)CNC(=N)N (stereo not drawn) [compound 270] | + (“+” indicates greater than 50% inhibition at 10 μM) | − (“−” indicates less than 50% inhibition at 10 μM) | − (“−” indicates less than 50% inhibition at 10 μM) | + (“+” indicates greater than 50% inhibition at 10 μM) | − (“−” indicates less than 50% inhibition at 10 μM) | − (“−” indicates less than 50% inhibition at 10 μM) | − (“−” indicates less than 50% inhibition at 10 μM) | + (“+” indicates greater than 50% inhibition at 10 μM) | + (“+” indicates greater than 50% inhibition at 10 μM) | − (“−” indicates less than 50% inhibition at 10 μM) | − (“−” indicates less than 50% inhibition at 10 μM) | 
2 | N=C(N)NCC(=O)N[C@H]1C(OCc2ccc(Cl)cc2)O[C@H](COCc2ccc3ccccc3c2)[C@@H](O)[C@@H]1OCc1ccc2ccccc2c1 (stereo partly drawn) [compound 512] |  |  |  |  |  |  |  |  |  |  |  | A8: inhibition of radioligand binding, human neurokinin (NK1) (Human neurokinin (NK1)): + (“+” indicates greater than 50% inhibition at 10 μM); A2: inhibition of radioligand binding, human κ-opioid (KOP) (Human κ-Opioid (KOP); 10 µM): − (“−” indicates less than 50% inhibition at 10 μM); A9: inhibition of radioligand binding, human neuropeptide Y (NPY-Y1) ([1]; 10 µM): − (“−” indicates less than 50% inhibition at 10 μM); A5: inhibition of radioligand binding, human melanocortin (MC5) (Human melanocortin (MC5)): + (“+” indicates greater than 50% inhibition at 10 μM); A11: inhibition of radioligand binding, mouse urotensin (mUR2) (Mouse urotensin (mUR2)): − (“−” indicates less than 50% inhibition at 10 μM); A7: inhibition of radioligand binding, human μ-opioid (MOP) (Human μ-opioid (MOP)): + (“+” indicates greater than 50% inhibition at 10 μM); A6: inhibition of radioligand binding, human melanin-concentrating hormone (MCH1) ([2]; [125I]-S36057): + (“+” indicates greater than 50% inhibition at 10 μM); A4: inhibition of radioligand binding, human melanocortin (MC4) (Human Melanocortin (MC4)): + (“+” indicates greater than 50% inhibition at 10 μM); A3: inhibition of radioligand binding, human melanocortin (MC3) (Human Melanocortin (MC3)): + (“+” indicates greater than 50% inhibition at 10 μM); A10: inhibition of radioligand binding, human opioid (ORL1) (Human opioid (ORL1)): + (“+” indicates greater than 50% inhibition at 10 μM); A1: inhibition of radioligand binding, human δ-opioid (DOP) (Human δ-opioid (DOP)): − (“−” indicates less than 50% inhibition at 10 μM)
3 | COCC1OC(OCc2ccccc2)C(NC(=O)CCCN)C(OCc2ccc3ccccc3c2)C1O (stereo not drawn) [compound 192] | + (“+” indicates greater than 50% inhibition at 10 μM) | − (“−” indicates less than 50% inhibition at 10 μM) | − (“−” indicates less than 50% inhibition at 10 μM) | + (“+” indicates greater than 50% inhibition at 10 μM) | − (“−” indicates less than 50% inhibition at 10 μM) | − (“−” indicates less than 50% inhibition at 10 μM) | − (“−” indicates less than 50% inhibition at 10 μM) | − (“−” indicates less than 50% inhibition at 10 μM) | − (“−” indicates less than 50% inhibition at 10 μM) | − (“−” indicates less than 50% inhibition at 10 μM) | − (“−” indicates less than 50% inhibition at 10 μM) | 
